For 14 compounds, TGI and GI50 results are on record in PubChem BioAssay (NCI).

Where “and” joins values, the source holds several entries; their conditions need not be identical. Equal values may be shown once.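 Assay format: 96-well plates, 48-hour exposure. Abbreviation: GI50, concentration required for 50% inhibition of growth. TGI is the concentration that stops growth completely.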 Bounds are passed on as bounds.

Test systems include M19-MEL melanoma; SNB-75 CNS; EKVX NSCLC; ACHN renal; A498 renal; LOX IMVI melanoma; CAKI-1 renal; DU-145 prostate; BT-549 breast.
Test in all cases: inhibition of tumour cell growth, NCI panel, 48 h

Consider `Cc1nc2ccccc2c(=O)n1-c1ccccc1F`, for which the TGI with M19-MEL melanoma, in the assay with SNB-75 CNS, in the assay on EKVX NSCLC, in the assay on ACHN renal, in the assay on A498 renal and with LOX IMVI melanoma was more than 100 µM throughout. In the assay on CAKI-1 renal, this compound came in with a TGI of more than 100 µM.

Consider `COc1cc2c(c(OC)c1OC)-c1c(cc3c(c1OC)OCO3)C1OC2C(C)C1C` (stereo not given) (tested in a mixture with another compound), for which the TGI with DU-145 prostate, in the assay on BT-549 breast, with SNB-75 CNS, in the assay on EKVX NSCLC, in the assay with ACHN renal and in the assay with A498 renal was more than 100 µM in each case. For the same compound, the TGI in the assay on LOX IMVI melanoma and in the assay on CAKI-1 renal was more than 100 µM in each case.

With `CCCCCCC(=O)C/C(=N/NC(N)=S)C(=O)NC1C2CC3CC(C2)CC1C3` (stereo not given), the TGI with M19-MEL melanoma, with SNB-75 CNS, in the assay with EKVX NSCLC, with ACHN renal and in the assay with LOX IMVI melanoma was more than 100 µM each time.

With `COc1ccc(CNc2nc3cc(C(F)(F)F)ccc3nc2C)cc1OC`, the TGI is more than 100 µM in the assay on M19-MEL melanoma; 61.4 µM in the assay with SNB-75 CNS; 72.6 µM in the assay with EKVX NSCLC; 83.6 µM in the assay with A498 renal; 68.7 µM in the assay with LOX IMVI melanoma; more than 100 µM in the assay with CAKI-1 renal.

With `OC/C=C(\I)CCCOCOCc1ccccc1`, the TGI in the assay on M19-MEL melanoma was more than 100 µM; with SNB-75 CNS it was more than 100 µM; with EKVX NSCLC, more than 100 µM; with ACHN renal, more than 100 µM; with A498 renal, more than 100 µM; with LOX IMVI melanoma, 45.9 µM.

Take `N#C/C(=C\c1cc2ccccc2c2ccccc12)c1ccccc1`: the TGI in the assay with M19-MEL melanoma was more than 100 µM; with SNB-75 CNS, 10.9 µM; in the assay with EKVX NSCLC it was 75.2 µM; with ACHN renal, more than 83.5 µM; in the assay with A498 renal, 38.3 µM; in the assay with LOX IMVI melanoma it was more than 100 µM. In the assay on CAKI-1 renal, the TGI is more than 37.8 µM.

With `Nc1nc(-c2cccc(Cl)c2)c(-c2ccc3ncccc3n2)s1`, the GI50 is more than 25 µM with DU-145 prostate; more than 25 µM with BT-549 breast; more than 25 µM with SNB-75 CNS; more than 25 µM with EKVX NSCLC; more than 25 µM in the assay on ACHN renal; 8.4 µM with A498 renal. Also, the GI50 with LOX IMVI melanoma and in the assay on CAKI-1 renal was more than 25 µM throughout. Besides, the TGI in the assay on DU-145 prostate, with BT-549 breast, in the assay on SNB-75 CNS, in the assay on EKVX NSCLC, in the assay with ACHN renal and in the assay with A498 renal was more than 25 µM throughout. In addition, the TGI in the assay on LOX IMVI melanoma and with CAKI-1 renal was more than 25 µM each time.

Turning to `CC(C)(C)c1cc(NC(=O)Cc2ccc(-c3cnc4cc(-c5cnn(CCN6CCOCC6)c5)ccc4n3)cc2)no1`, the GI50 in the assay with DU-145 prostate was 0.432 µM and 0.494 µM and 0.0757 µM; with EKVX NSCLC, 0.829 µM and 0.459 µM and 0.144 µM; in the assay on ACHN renal, 0.151 µM and 0.302 µM and 0.0394 µM; in the assay on A498 renal it was 0.0663 µM and 0.0152 µM; in the assay with LOX IMVI melanoma, 0.248 µM and 0.416 µM and 0.0821 µM; in the assay with CAKI-1 renal it was 0.123 µM and 0.219 µM and 0.0253 µM. For the same compound, the TGI in the assay on DU-145 prostate is 50 µM and > 100 µM and > 3 µM; with BT-549 breast, 39.5 µM and > 100 µM and > 3 µM; in the assay on SNB-75 CNS it was 4.39 µM and 38.4 µM and > 3 µM; in the assay on EKVX NSCLC, 50 µM and > 100 µM and > 3 µM; in the assay with ACHN renal, 50 µM and > 100 µM and > 3 µM; in the assay on A498 renal, 0.425 µM and 0.0791 µM. For the same compound, the TGI with LOX IMVI melanoma is 50 µM and > 100 µM and > 3 µM; with CAKI-1 renal, 50 µM and > 100 µM and > 3 µM.

In the case of `N#Cc1cccc(NC(=O)c2cc(-c3ccc(F)cc3F)ccc2O)c1`, the GI50 in the assay on DU-145 prostate was 3.26 µM; in the assay with BT-549 breast, 2.31 µM; in the assay on SNB-75 CNS, 2.08 µM; in the assay on EKVX NSCLC, 2.65 µM; with ACHN renal it was 2.56 µM; in the assay on A498 renal, 1.27 µM. Also, the GI50 was 2.45 µM in the assay on LOX IMVI melanoma and 2.31 µM in the assay on CAKI-1 renal. Besides, the TGI was more than 100 µM in the assay on DU-145 prostate; 7.06 µM with BT-549 breast; 8.05 µM in the assay with SNB-75 CNS; 10.9 µM with EKVX NSCLC; 7.89 µM with ACHN renal; 4.3 µM with A498 renal. The TGI with LOX IMVI melanoma stood at 6.58 µM; in the assay with CAKI-1 renal, 10.1 µM.

For `COc1cc2c(c(OC)c1)C1(CC(CC#N)C2)SCCS1` (stereo not given), the TGI with M19-MEL melanoma, in the assay with SNB-75 CNS, with ACHN renal, with A498 renal and in the assay with CAKI-1 renal was more than 100 µM in each case.

`CC1=N/C(=C\c2cccc([N+](=O)[O-])c2)C(=O)O1`: the TGI is more than 100 µM in the assay on M19-MEL melanoma; 91 µM in the assay with SNB-75 CNS; more than 100 µM in the assay on EKVX NSCLC; more than 100 µM in the assay on ACHN renal; more than 100 µM with A498 renal.

Turning to `N#CCC(=O)NC1C2CC3CC(C2)CC1C3` (stereo not given), the TGI with M19-MEL melanoma is more than 100 µM; in the assay with SNB-75 CNS it was 33.5 µM; with EKVX NSCLC, 33.9 µM; in the assay on ACHN renal it was 33.3 µM; in the assay with A498 renal it was 30.2 µM; in the assay on LOX IMVI melanoma, 23.8 µM. The same compound registered a TGI with CAKI-1 renal of 34.1 µM.

Consider `CN(C)C(c1ccccc1)C(O)c1ccccc1` (stereo not given), for which the TGI in the assay on M19-MEL melanoma, in the assay with SNB-75 CNS, in the assay with EKVX NSCLC, in the assay on ACHN renal, with A498 renal and with LOX IMVI melanoma was more than 100 µM throughout. Moreover, the TGI with CAKI-1 renal is more than 100 µM.

For `Cc1ccc(C(=O)Nc2ccc(CN3CCN(C)CC3)c(C(F)(F)F)c2)cc1C#Cc1cnc(N)c2ccccc12`, the GI50 was 0.167 µM in the assay on DU-145 prostate; 1.93 µM in the assay with BT-549 breast; 0.726 µM in the assay with SNB-75 CNS; 0.514 µM in the assay with EKVX NSCLC; 0.133 µM in the assay with ACHN renal; 0.31 µM with A498 renal. Besides, the figures for the GI50 with LOX IMVI melanoma and in the assay on CAKI-1 renal were 0.509 µM and 0.328 µM, respectively. Moreover, the TGI with DU-145 prostate worked out at 0.861 µM; in the assay with BT-549 breast, 8.71 µM; in the assay with SNB-75 CNS, 1.52 µM; in the assay on EKVX NSCLC it was 1.28 µM; in the assay with ACHN renal, 0.631 µM; in the assay on A498 renal it was 1.3 µM. For the same compound, the TGI in the assay with LOX IMVI melanoma turned out to be 1.09 µM; with CAKI-1 renal it was 1.05 µM.
